Results from patent publication US20090075974A1, “AGENT FOR PROPHYLAXIS AND TREATMENT OF PANCREATITIS” (UMN Pharma Inc., priority 2005, published 2009).
Read-outs that look alike come from different tables or passages of the source.

Tests used:
5-HT2C receptor = biological target: T1, 5-HT2C receptor (Homo sapiens, UniProt P28335); settings: literature values, cited from earlier work
T1 construct: expressed in transfected cells; host or cells: HEK-293 (membrane fractions)
T1 sequence (P28335 33-458): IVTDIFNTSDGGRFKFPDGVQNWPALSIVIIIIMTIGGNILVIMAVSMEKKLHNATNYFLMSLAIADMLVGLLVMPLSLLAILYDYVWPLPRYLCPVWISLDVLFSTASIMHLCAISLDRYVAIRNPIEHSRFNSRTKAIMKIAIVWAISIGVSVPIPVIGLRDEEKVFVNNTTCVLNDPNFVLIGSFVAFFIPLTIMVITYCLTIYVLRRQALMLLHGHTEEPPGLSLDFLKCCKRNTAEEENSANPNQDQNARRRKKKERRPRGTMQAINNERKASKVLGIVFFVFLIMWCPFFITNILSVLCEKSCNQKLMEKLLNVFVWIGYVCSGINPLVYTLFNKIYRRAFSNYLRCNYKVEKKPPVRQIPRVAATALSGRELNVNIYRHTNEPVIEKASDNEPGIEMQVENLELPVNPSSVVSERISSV

[1] = tested on: mouse with cerulein-induced pancreatitis; assay: Cerulein-induced acute pancreatitis in mouse: amylase and lipase activity in plasma; assay type: in vivo; settings: for inhibition rate of amylase activity: Example 2, FIG. 2, drug 3.2 mg/Kg; for effect on amylase in blood of mice administered with cerulein / effect on lipase in blood of mice administered with cerulein: Example 1, FIG. 1, under the dorsal skin 15 min before first cerulein, ketanserin 3.2 mg/Kg
Experimental: Receptor subtypes involved in the onset of pancreatitis were examined with the use of antagonists of 5-HT2A receptor, 5-HT2B receptor, and 5-HT2C receptor. A mouse having acute pancreatitis induced by excessive administration of cerulein was used as an animal model. This model is not affected by food consumption, which is different from CDE pancreatitis, and thus it is possible to obtain constant pathologic features and analyze data more accurately.
An aqueous solution of cerulein (0.05 mg/Kg) was administered to a five-week-old mouse every one hour five times by hypodermic injection. Each 5-HT2 antagonist suspended in a solvent (0.5% methylcellulose in saline) was administered under the dorsal skin 15 minutes before the first administration of cerulein. […] Further, only the solvent was administered to the control group (group administered with cerulein alone) under the dorsal skin. One hour after the final administration, blood was collected, and amylase activity and lipase activity in the plasma were determined.
Effects of various 5-HT2A antagonists on amylase activity and lipase activity in plasma of cerulein-induced pancreatic mice were examined. […] Then the amylase activity and the lipase activity in plasma were determined.
Effects of various 5-HT2 antagonists on amylase activity and lipase activity in plasma of cerulein-induced pancreatic mice were examined. […] Then the amylase activity and the lipase activity in plasma were determined.

5-HT2B receptor = biological target: T2, 5-HT2B receptor (Homo sapiens, UniProt P41595); settings: literature values, cited from earlier work
T2 construct: expressed in transfected cells; host or cells: CHO-K1 (membrane fractions)

[2] = plasma, cerulein-induced pancreatitis mouse
[3] = Bonhaus et al. (1995), second block of Table 1

T2 sequence (P41595 whole entry): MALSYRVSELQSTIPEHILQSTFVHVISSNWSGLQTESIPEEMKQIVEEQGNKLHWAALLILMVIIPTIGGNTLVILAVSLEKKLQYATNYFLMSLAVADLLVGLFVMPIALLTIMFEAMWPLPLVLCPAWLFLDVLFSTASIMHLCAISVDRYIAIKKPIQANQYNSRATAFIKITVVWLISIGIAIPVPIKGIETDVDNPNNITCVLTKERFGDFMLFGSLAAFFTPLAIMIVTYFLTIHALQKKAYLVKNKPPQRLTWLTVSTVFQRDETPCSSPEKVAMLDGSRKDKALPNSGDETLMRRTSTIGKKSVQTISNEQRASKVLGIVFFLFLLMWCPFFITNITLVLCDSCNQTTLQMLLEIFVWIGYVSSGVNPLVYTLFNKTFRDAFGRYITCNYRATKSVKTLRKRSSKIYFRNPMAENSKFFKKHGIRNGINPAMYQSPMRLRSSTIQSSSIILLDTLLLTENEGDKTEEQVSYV

Compound	inhibition rate of amylase activity [1, 2] [%]	effect on amylase in blood of mice administered with cerulein [1]	effect on lipase in blood of mice administered with cerulein [1]	other results
O=C1NCN(c2ccccc2)C12CCN(CCCOc1ccc(F)cc1)CC2 [AMI-193]	17			5-HT2C pKi ± SEM (5-HT2C receptor; Knight et al. (2004)): 5.81 ± 0.16
OC(c1ccccc1)C1CCN(CCc2ccccc2)CC1 (stereo not drawn) [MDL11939]	−4			
CN1C[C@H](CNC(=O)OCc2ccccc2)C[C@@H]2c3cccc4c3c(cn4C)C[C@H]21 [Metergoline, metergoline]				inhibition rate of amylase ([1]; Example 3, FIG. 3, drug 3.2 mg/kg, plasma, cerulein-induced pancreatitis mouse): 30%
Cc1cc(NC(=O)Nc2ccc3c(ccn3C)c2)sn1 [SB204741]		didn't show any effect	didn't show any effect	5-HT2B pKi ± SEM (5-HT2B receptor; [3]): 7.1 ± 0.08; 5-HT2B pKi ± SEM (5-HT2B receptor; Knight et al. (2004)): 6.90 ± 0.27
Cc1cc2c(cc1Cl)N(C(=O)Nc1ccc(Oc3cccnc3C)nc1)CC2 [SB242084]		didn't show any effect	didn't show any effect	
O=C(c1ccc(F)cc1)C1CCN(CCn2c(=O)[nH]c3ccccc3c2=O)CC1 [ketanserin]	37	significantly decreased	significantly decreased	
Cc1nc2n(c(=O)c1CCN1CCC(c3noc4cc(F)ccc34)CC1)CCCC2 [risperidone]	52			
O=C(CCCN1CCC2(CC1)C(=O)NCN2c1ccccc1)c1ccc(F)cc1 [spiperone]				5-HT2C pKi ± SEM (5-HT2C receptor; [3]): <6.00
